pEC50: −log10 of the molar value.
Assays:
Rattus norvegicus = species on record: Rattus norvegicus; test: Toxicity in Sprague-Dawley rat assessed as adverse effects by 14 day toxicology study; type: organism-based; settings: in vivo, 336 h
Canis familiaris = species on record: Canis familiaris; test: Toxicity in beagle dog assessed as adverse effects by 14 day toxicology study; type: organism-based, Canis lupus familiaris; settings: in vivo, 336 h
Hepatitis C virus [1] = test: Ratio of EC50 for HCV genotype 1b Con1 infected in human HuH7 cells in presence of 10% BSA to EC50 for HCV genotype 1b Con1 infected in human HuH7 cells; type: functional, Hepacivirus hominis, isolate Con1, Huh-7
Hepatitis C virus [2] = test: Ratio of EC50 for HCV genotype 1b Con1 infected in human HuH7 cells in presence of human serum to EC50 for HCV genotype 1b Con1 infected in human HuH7 cells; type: functional, Hepacivirus hominis, isolate Con1, Huh-7
Hepatitis C virus [3] = test: Ratio of EC50 for HCV genotype 1a H77 infected in human HuH7 cells in presence of 10% BSA to EC50 for HCV genotype 1a H77 infected in human HuH7 cells; type: functional, Hepacivirus hominis, Huh-7
Hepatitis C virus [4] = test: Ratio of EC50 for HCV genotype 1a H77 infected in human HuH7 cells in presence of human serum to EC50 for HCV genotype 1a H77 infected in human HuH7 cells; type: functional, Hepacivirus hominis, Huh-7
Hepatitis C virus [5] = test: Antiviral activity against HCV genotype 1b Con1 infected in human HuH7 cells assessed as inhibition of viral RNA replication after 3 days by renilla luciferase reporter gene assay in presence of human serum; type: functional, organism-based, Hepacivirus hominis; settings: isolate Con1, Huh-7, 72 h
Hepatitis C virus [6] = test: Antiviral activity against HCV genotype 1a H77 infected in human HuH7 cells assessed as inhibition of viral RNA replication after 3 days by renilla luciferase reporter gene assay in presence of 10% BSA; type: functional, organism-based, Hepacivirus hominis; settings: genotype 1a H77, Huh-7, 72 h
Hepatitis C virus [7] = test: Antiviral activity against HCV genotype 1a H77 infected in human HuH7 cells assessed as inhibition of viral RNA replication after 3 days by renilla luciferase reporter gene assay in presence of human serum; type: functional, organism-based, Hepacivirus hominis; settings: genotype 1a H77, Huh-7, 72 h
Hepatitis C virus [8] = test: Antiviral activity against HCV genotype 1b Con1 infected in human HuH7 cells assessed as inhibition of viral RNA replication after 3 days by renilla luciferase reporter gene assay in presence of 10% BSA; type: functional, organism-based, Hepacivirus hominis; settings: isolate Con1, Huh-7, 72 h
[9] = Oral bioavailability in beagle dog at 0.5 mg/kg; type: ADME, organism-based, Canis lupus familiaris; settings: in vivo
[10] = Oral bioavailability in cynomolgus monkey at 1 mg/kg; type: ADME, organism-based, Macaca fascicularis; settings: in vivo
[11] = Mean residence time in cynomolgus monkey at 0.5 mg/kg, iv; type: ADME, organism-based, Macaca fascicularis; parameters: dose 0.5 mg/kg, route intravenous; settings: in vivo
[12] = Half life in cynomolgus monkey at 0.5 mg/kg, iv; type: ADME, organism-based, Macaca fascicularis; parameters: dose 0.5 mg/kg, route intravenous; settings: in vivo
[13] = Volume of distribution at steady state in cynomolgus monkey at 0.5 mg/kg, iv; type: ADME, organism-based, Macaca fascicularis; parameters: dose 0.5 mg/kg, route intravenous; settings: in vivo, read-out: Vdss
[14] = Clearance in cynomolgus monkey at 0.5 mg/kg, iv; type: ADME, organism-based, Macaca fascicularis; parameters: dose 0.5 mg/kg, route intravenous; settings: in vivo
[15] = Mean residence time in beagle dog at 0.2 mg/kg, iv; type: ADME, organism-based, Canis lupus familiaris; parameters: dose 0.2 mg/kg, route intravenous; settings: in vivo
[16] = Half life in beagle dog at 0.2 mg/kg, iv; type: ADME, organism-based, Canis lupus familiaris; parameters: dose 0.2 mg/kg, route intravenous; settings: in vivo
[17] = Volume of distribution at steady state in beagle dog at 0.2 mg/kg, iv; type: ADME, organism-based, Canis lupus familiaris; parameters: dose 0.2 mg/kg, route intravenous; settings: in vivo, read-out: Vdss
[18] = Clearance in beagle dog at 0.2 mg/kg, iv; type: ADME, organism-based, Canis lupus familiaris; parameters: dose 0.2 mg/kg, route intravenous; settings: in vivo
[19] = Oral bioavailability in Sprague-Dawley rat at 2 mg/kg; type: ADME, organism-based; settings: in vivo
[20] = Mean residence time in Sprague-Dawley rat at 1 mg/kg, iv; type: ADME, organism-based; parameters: dose 1 mg/kg, route intravenous; settings: in vivo
[21] = Half life in Sprague-Dawley rat at 1 mg/kg, iv; type: ADME, organism-based; parameters: dose 1 mg/kg, route intravenous; settings: in vivo
[22] = Volume of distribution at steady state in Sprague-Dawley rat at 1 mg/kg, iv; type: ADME, organism-based; parameters: dose 1 mg/kg, route intravenous; settings: in vivo, read-out: Vdss
[23] = Clearance in Sprague-Dawley rat at 1 mg/kg, iv; type: ADME, organism-based; parameters: dose 1 mg/kg, route intravenous; settings: in vivo
Hepatitis C virus [24] = test: Antiviral activity against HCV genotype 1b Con1 infected in human HuH7 cells assessed as inhibition of viral RNA replication after 3 days by renilla luciferase reporter gene assay; type: functional, organism-based, Hepacivirus hominis; settings: isolate Con1, Huh-7, 72 h
Hepatitis C virus [25] = test: Antiviral activity against HCV genotype 1a H77 infected in human HuH7 cells assessed as inhibition of viral RNA replication after 3 days by renilla luciferase reporter gene assay; type: functional, organism-based, Hepacivirus hominis; settings: genotype 1a H77, Huh-7, 72 h
[26] = Metabolic stability in human liver microsomes assessed as hepatic extraction at 3 uM after 60 mins by LC/MS/MS analysis; type: ADME; settings: read-out: ERH
[27] = Metabolic stability in cynomolgus monkey liver microsomes assessed as hepatic extraction at 3 uM after 60 mins by LC/MS/MS analysis; type: ADME, Macaca fascicularis, Microsome; settings: read-out: ERH
[28] = Metabolic stability in beagle dog liver microsomes assessed as hepatic extraction at 3 uM after 60 mins by LC/MS/MS analysis; type: ADME, Canis lupus familiaris; settings: read-out: ERH
[29] = Metabolic stability in Sprague-Dawley rat liver microsomes assessed as hepatic extraction at 3 uM after 60 mins by LC/MS/MS analysis; type: ADME; settings: read-out: ERH
[30] = Ratio of EC50 for HCV genotype 1a H77 infected in human HuH7 cells in presence of 10% BSA to plasma concentration in fasted healthy human at 100 mg, po at 24 hrs
[31] = Ratio of EC50 for HCV genotype 1a H77 infected in human HuH7 cells in presence of human serum to plasma concentration in fasted healthy human at 100 mg, po at 24 hrs

Structure (SMILES): COC(=O)N[C@H](C(=O)N1CC2(CC2)C[C@H]1c1nc(-c2ccc3c(c2)C(F)(F)c2cc(-c4ccc5[nH]c([C@@H]6[C@H]7CC[C@H](C7)N6C(=O)[C@@H](NC(=O)OC)C(C)C)nc5c4)ccc2-3)c[nH]1)C(C)C
- Activity (Rattus norvegicus): Non-toxic
- Activity (Canis familiaris): Non-toxic
- Ratio EC50 (Hepatitis C virus [1]): 6.7
- Ratio EC50 (Hepatitis C virus [2]): 6.7
- Ratio EC50 (Hepatitis C virus [3]): 6.7
- Ratio EC50 (Hepatitis C virus [4]): 6.7
- pEC50 (Hepatitis C virus [5]): 10.57
- pEC50 (Hepatitis C virus [6]): 9.68
- pEC50 (Hepatitis C virus [7]): 9.68
- pEC50 (Hepatitis C virus [8]): 10.57
- bioavailability [9]: 53%
- bioavailability [10]: 41.1%
- MRT [11]: 12.9 h
- half-life [12]: 10.3 h
- Vd [13]: 2.15 L/kg
- clearance [14]: 2.83 mL/min/kg
- MRT [15]: 9.2 h
- half-life [16]: 7.41 h
- Vd [17]: 1.19 L/kg
- clearance [18]: 2.17 mL/min/kg
- bioavailability [19]: 32.5%
- MRT [20]: 6.19 h
- half-life [21]: 4.67 h
- Vd [22]: 2.66 L/kg
- clearance [23]: 7.17 mL/min/kg
- pEC50 (Hepatitis C virus [24]): 11.40
- pEC50 (Hepatitis C virus [25]): 10.51
- hepatic extraction ratio at 1 h, 3 µM [26]: < 0.127
- hepatic extraction ratio at 1 h, 3 µM [27]: < 0.127
- hepatic extraction ratio at 1 h, 3 µM [28]: < 0.095
- hepatic extraction ratio at 1 h, 3 µM [29]: < 0.092
- Ratio [30]: 470
- Ratio [31]: 470
